Results reported in patent publication US20260217673A1, “NOVEL COMPOUND AS RON INHIBITOR” (LG CHEM, LTD., priority 2022, published 2026).

Columns and labels:
RON = RON (Homo sapiens, UniProt Q04912); assay: RON inhibitory activity, TR-FRET kinase assay; type: biochemical; details: RON protein, ULight-labeled Poly GT substrate
Description: To measure the RON inhibitory activity of the example compounds, the IC50 of the compounds was measured using time-resolved fluorescence energy transfer (TR-FRET).
Specifically, the compound was prepared at a concentration of 1 mM with 100% DMSO and serially diluted 10 times through 3-fold dilution. 2 μl of the serially diluted compound was added to a 96-well plate containing 48 μl of 1× kinase reaction buffer (50 mM HEPES (pH 7.4), 0.01% Tween-20, 5 mM DTT, 0.5 mM Na3VO4, 2 mM EGTA, 10 mM MgCl2).
The RON protein was diluted with a RON storage buffer (50 mM Tris-HCl (pH 7.5), 150 mM NaCl, 0.5 mM EDTA, 0.02% Triton X-100) to a concentration of 49.3 nM, and then diluted again with 1× kinase reaction buffer to be 0.4 nM. As a substrate cocktail, a RON-specific substrate mixture (40 μM ULight-labeled Poly GT, 100 nM ATP) was prepared at a concentration twice the final reaction concentration.
(§1) After that, a 384-well plate was prepared, and 2.5 μl of the diluted example compound was added to each of the experimental group wells, and 2.5 μl of a 4% DMSO solution was dispensed into high control wells and low control wells.
(§2) Afterward, 2.5 μl of 0.4 nM RON was dispensed into the high control wells and the experimental group wells, and 2.5 μl of 1× kinase reaction buffer was added to the low control wells, and after centrifugation at 1000 RPM for 40 seconds at room temperature, the mixtures were incubated at room temperature for 20 to 30 minutes. Then, 5 μl of the substrate cocktail (2×) was dispensed into all wells, and after centrifugation at 1000 RPM for 40 seconds at room temperature, the mixtures were incubated at room temperature for 60 minutes. Afterward, 5 μl of 30 mM EDTA was added to all wells to terminate the reaction, and the mixtures were incubated again at room temperature for 5 minutes. Thereafter, 5 μl of 4× phosphotyrosine antibodies (Perkin Elmer) containing europium was added to all wells and incubated at room temperature for 60 minutes. After the incubation, the 384-well-plate was read with a Vison plate reader. At this time, the excitation wavelength was 340 nm, and the emission wavelengths were 620 nm and 665 nm. The IC50 value of each example compound was derived using the GraphPd Prism7 program.

cMET = cMET (Homo sapiens, UniProt P08581); assay: MET (cMET) enzyme inhibitory activity, TR-FRET kinase assay; type: biochemical; details: cMET protein, TK peptide substrate
Chain of cMET (P08581 25-1390): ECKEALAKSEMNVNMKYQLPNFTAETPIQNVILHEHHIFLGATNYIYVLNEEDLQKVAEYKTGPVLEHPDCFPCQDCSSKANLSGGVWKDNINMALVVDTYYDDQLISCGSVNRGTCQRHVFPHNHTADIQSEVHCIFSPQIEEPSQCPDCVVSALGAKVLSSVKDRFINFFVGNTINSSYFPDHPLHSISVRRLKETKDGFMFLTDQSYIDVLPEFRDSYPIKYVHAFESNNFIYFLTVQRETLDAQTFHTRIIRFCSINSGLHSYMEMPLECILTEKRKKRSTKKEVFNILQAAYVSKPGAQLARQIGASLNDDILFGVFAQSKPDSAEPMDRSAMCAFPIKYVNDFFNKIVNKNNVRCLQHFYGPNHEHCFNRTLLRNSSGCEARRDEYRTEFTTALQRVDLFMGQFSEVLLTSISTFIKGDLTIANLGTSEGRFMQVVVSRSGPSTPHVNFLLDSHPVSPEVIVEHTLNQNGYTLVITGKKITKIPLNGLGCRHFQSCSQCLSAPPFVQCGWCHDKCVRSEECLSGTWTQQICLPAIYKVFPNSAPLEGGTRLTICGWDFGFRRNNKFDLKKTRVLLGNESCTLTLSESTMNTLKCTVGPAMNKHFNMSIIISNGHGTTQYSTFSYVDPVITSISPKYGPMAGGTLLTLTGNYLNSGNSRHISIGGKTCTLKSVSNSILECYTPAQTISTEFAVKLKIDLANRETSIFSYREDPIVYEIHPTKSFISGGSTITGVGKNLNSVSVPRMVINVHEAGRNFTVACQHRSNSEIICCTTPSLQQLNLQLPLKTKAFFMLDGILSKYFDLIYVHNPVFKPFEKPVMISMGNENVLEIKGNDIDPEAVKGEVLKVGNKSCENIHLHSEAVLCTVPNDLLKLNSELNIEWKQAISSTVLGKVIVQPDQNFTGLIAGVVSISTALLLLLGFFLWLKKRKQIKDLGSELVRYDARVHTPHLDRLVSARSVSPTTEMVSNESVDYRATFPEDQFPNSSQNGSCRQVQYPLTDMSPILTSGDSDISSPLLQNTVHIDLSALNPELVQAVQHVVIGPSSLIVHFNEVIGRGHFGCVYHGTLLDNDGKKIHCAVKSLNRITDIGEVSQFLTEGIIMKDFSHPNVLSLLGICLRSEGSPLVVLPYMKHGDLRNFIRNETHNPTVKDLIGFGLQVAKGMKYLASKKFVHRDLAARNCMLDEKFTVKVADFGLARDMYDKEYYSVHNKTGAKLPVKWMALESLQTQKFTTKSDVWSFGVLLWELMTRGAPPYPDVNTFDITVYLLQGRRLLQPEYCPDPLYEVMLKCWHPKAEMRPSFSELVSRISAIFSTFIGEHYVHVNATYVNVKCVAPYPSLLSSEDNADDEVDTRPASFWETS
Description: In addition, to measure cMET enzyme activity inhibition, an experiment was performed by the same method as the experiment for measuring the RON enzyme activity inhibition.
Specifically, the compound was prepared at a concentration of 1 mM with 100% DMSO and serially diluted 10 times through 3-fold dilution. 2 μl of the serially diluted compound was added to a 96-well plate containing 48 μl 1× kinase reaction buffer (50 mM HEPES (pH 7.4), 0.05% BSA, 0.005% Tween-20, 1 mM DTT, 0.5 mM MnCl2, 20 mM MgCl2).
The cMET protein was diluted in a cMET storage buffer (50 mM Tris-HCl (pH 7.5), 150 mM NaCl, 0.05% Brij35, 1 mM DTT, 10% glycerol) to a concentration of 263 nM, and then diluted again with 1× kinase reaction buffer to 2 nM. As a substrate cocktail, a MET-specific substrate mixture (5 μM TK peptide, 10 mM ATP) was prepared at a concentration twice the final reaction concentration.
as §1
as §2, with “μl of 2 nM cMET” for “μl of 0.4 nM RON”, “2 nM cMET was dispensed” for “0.4 nM RON was dispensed”, “was dispensed to the high” for “was dispensed into the high”, “μl of 90 mM EDTA” for “μl of 30 mM EDTA”

Chain of RON (Q04912 25-1400, species assumed): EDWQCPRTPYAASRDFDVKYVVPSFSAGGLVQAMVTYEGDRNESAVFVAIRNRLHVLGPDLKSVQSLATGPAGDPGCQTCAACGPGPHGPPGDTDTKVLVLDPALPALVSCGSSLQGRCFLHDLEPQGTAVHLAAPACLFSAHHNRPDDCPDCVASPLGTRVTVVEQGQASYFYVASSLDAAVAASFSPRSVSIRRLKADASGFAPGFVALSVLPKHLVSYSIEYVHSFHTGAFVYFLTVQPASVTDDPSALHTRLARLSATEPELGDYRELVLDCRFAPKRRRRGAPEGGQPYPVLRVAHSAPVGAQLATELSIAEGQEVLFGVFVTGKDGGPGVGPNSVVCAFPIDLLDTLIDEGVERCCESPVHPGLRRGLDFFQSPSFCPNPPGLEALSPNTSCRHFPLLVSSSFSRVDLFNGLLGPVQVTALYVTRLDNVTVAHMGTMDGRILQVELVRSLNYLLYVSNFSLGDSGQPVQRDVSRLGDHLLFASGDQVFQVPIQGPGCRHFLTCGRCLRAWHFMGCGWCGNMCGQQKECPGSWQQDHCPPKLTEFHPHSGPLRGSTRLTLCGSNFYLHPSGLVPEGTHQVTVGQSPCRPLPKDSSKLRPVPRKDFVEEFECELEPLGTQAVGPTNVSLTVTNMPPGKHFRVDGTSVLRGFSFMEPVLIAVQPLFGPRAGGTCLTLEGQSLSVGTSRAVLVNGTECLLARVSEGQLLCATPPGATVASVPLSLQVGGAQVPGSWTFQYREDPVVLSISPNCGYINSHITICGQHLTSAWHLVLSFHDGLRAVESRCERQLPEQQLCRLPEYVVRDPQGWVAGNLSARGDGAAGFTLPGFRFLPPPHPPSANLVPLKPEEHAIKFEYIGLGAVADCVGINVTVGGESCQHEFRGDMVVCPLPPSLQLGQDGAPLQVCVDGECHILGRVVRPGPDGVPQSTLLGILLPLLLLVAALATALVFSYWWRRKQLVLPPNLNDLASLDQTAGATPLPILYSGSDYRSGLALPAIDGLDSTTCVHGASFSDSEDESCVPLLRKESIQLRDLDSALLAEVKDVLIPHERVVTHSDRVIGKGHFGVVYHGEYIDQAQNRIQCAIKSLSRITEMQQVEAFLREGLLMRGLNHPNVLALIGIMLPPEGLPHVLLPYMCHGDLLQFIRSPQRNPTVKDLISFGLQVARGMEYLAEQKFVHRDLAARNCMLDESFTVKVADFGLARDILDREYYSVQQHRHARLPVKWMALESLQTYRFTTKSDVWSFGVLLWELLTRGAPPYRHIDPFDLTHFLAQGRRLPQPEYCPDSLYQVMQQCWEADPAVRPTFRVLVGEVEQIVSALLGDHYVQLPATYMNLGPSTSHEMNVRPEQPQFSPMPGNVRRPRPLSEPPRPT

IC50 (RON) [nM] | IC50 (cMET) [nM] | Structure (SMILES)
< 50 | 500 to 5000 | C#Cc1c(Oc2c(F)cc(NC(=O)c3cnn(-c4ccccc4)c3C(F)(F)F)cc2F)ccnc1N [Example 25, N-(4-((2-amino-3-ethynylpyridin-4-yl)oxy)-3,5-difluorophenyl)-1-phenyl-5-(trifluoromethyl)-1H-pyrazole-4-carboxamide]
< 50 | 500 to 5000 | C#Cc1c(Oc2c(F)cc(NC(=O)c3cnn(-c4ncccc4F)c3C(F)(F)F)cc2F)ccnc1N [Example 26, N-(4-((2-amino-3-ethynylpyridin-4-yl)oxy)-3,5-difluorophenyl)-1-(3-fluoropyridin-2-yl)-5-(trifluoromethyl)-1H-pyrazole-4-carboxamide]
< 50 | 50 to 500 | C#Cc1c(Oc2c(F)cc(NC(=O)c3cnn(-c4ncccc4Cl)c3C(F)(F)F)cc2F)ccnc1N [Example 27, N-(4-((2-amino-3-ethynylpyridin-4-yl)oxy)-3,5-difluorophenyl)-1-(3-chloropyridin-2-yl)-5-(trifluoromethyl)-1H-pyrazole-4-carboxamide]
< 50 | 500 to 5000 | C#Cc1c(Oc2c(F)cc(NC(=O)c3cnn(-c4ncccn4)c3C(F)(F)F)cc2F)ccnc1N [Example 28, N-(4-((2-amino-3-ethynylpyridin-4-yl)oxy)-3,5-difluorophenyl)-1-(pyrimidin-2-yl)-5-(trifluoromethyl)-1H-pyrazole-4-carboxamide]
< 50 | 500 to 5000 | C#Cc1c(Oc2c(F)cc(NC(=O)c3cnn(-c4ccccn4)c3C(F)(F)F)cc2F)ccnc1N [Example 29, N-(4-((2-amino-3-ethynylpyridin-4-yl)oxy)-3,5-difluorophenyl)-1-(pyridin-2-yl)-5-(trifluoromethyl)-1H-pyrazole-4-carboxamide]
< 50 | 500 to 5000 | C#Cc1c(Oc2c(F)cc(NC(=O)c3cnn(-c4cccnn4)c3C(F)(F)F)cc2F)ccnc1N [Example 30, N-(4-((2-amino-3-ethynylpyridin-4-yl)oxy)-3,5-difluorophenyl)-1-(pyridazin-3-yl)-5-(trifluoromethyl)-1H-pyrazole-4-carboxamide]
< 50 | 500 to 5000 | N#Cc1c(Oc2c(F)cc(NC(=O)c3cnn(-c4ccccc4)c3C(F)(F)F)cc2F)ccnc1N [Example 31, N-(4-((2-amino-3-cyanopyridin-4-yl)oxy)-3,5-difluorophenyl)-1-phenyl-5-(trifluoromethyl)-1H-pyrazole-4-carboxamide]

Continued, compound first:

Structure (SMILES) | IC50 (RON) [nM] | IC50 (cMET) [nM]
Nc1ncnc(Oc2c(F)cc(NC(=O)c3cnn(-c4ncccn4)c3C(F)(F)F)cc2F)c1Cl [Example 12, N-(4-((6-amino-5-chloropyrimidin-4-yl)oxy)-3,5-difluorophenyl)-1-(pyrimidin-2-yl)-5-(trifluoromethyl)-1H-pyrazole-4-carboxamide] | < 50 | 500 to 5000
Nc1nccc(Oc2c(F)cc(NC(=O)c3cnn(-c4ccccc4)c3C(F)(F)F)cc2F)c1I [Example 13, N-(4-((2-amino-3-iodopyridin-4-yl)oxy)-3,5-difluorophenyl)-1-phenyl-5-(trifluoromethyl)-1H-pyrazole-4-carboxamide] | < 50 | 500 to 5000
Nc1nccc(Oc2c(F)cc(NC(=O)c3cnn(-c4ccccn4)c3C(F)(F)F)cc2F)c1I [Example 14, N-(4-((2-amino-3-iodopyridin-4-yl)oxy)-3,5-difluorophenyl)-1-(pyridin-2-yl)-5-(trifluoromethyl)-1H-pyrazole-4-carboxamide] | < 50 | > 5000
Nc1nccc(Oc2c(F)cc(NC(=O)c3cnn(-c4ncccc4F)c3C(F)(F)F)cc2F)c1I [Example 15, N-(4-((2-amino-3-iodopyridin-4-yl)oxy)-3,5-difluorophenyl)-1-(3-fluoropyridin-2-yl)-5-(trifluoromethyl)-1H-pyrazole-4-carboxamide] | < 50 | 50 to 500
Nc1nccc(Oc2c(F)cc(NC(=O)c3cnn(-c4ncccc4Cl)c3C(F)(F)F)cc2F)c1I [Example 16, N-(4-((2-amino-3-iodopyridin-4-yl)oxy)-3,5-difluorophenyl)-1-(3-chloropyridin-2-yl)-5-(trifluoromethyl)-1H-pyrazole-4-carboxamide] | < 50 | 50 to 500
Nc1nccc(Oc2c(F)cc(NC(=O)c3cnn(-c4cccnn4)c3C(F)(F)F)cc2F)c1I [Example 17, N-(4-((2-amino-3-iodopyridin-4-yl)oxy)-3,5-difluorophenyl)-1-(pyridazin-3-yl)-5-(trifluoromethyl)-1H-pyrazole-4-carboxamide] | < 50 | 500 to 5000
Nc1nccc(Oc2c(F)cc(NC(=O)c3cnn(-c4ncccn4)c3C(F)(F)F)cc2F)c1I [Example 18, N-(4-((2-amino-3-iodopyridin-4-yl)oxy)-3,5-difluorophenyl)-1-(pyrimidin-2-yl)-5-(trifluoromethyl)-1H-pyrazole-4-carboxamide] | < 50 | 500 to 5000
Nc1nccc(Oc2c(F)cc(NC(=O)c3cnn(-c4ccccc4)c3C(F)(F)F)cc2F)c1C1CCOCC1 [Example 19, N-(4-((2-amino-3-(tetrahydro-2H-pyran-4-yl)pyridin-4-yl)oxy)-3,5-difluorophenyl)-1-phenyl-5-(trifluoromethyl)-1H-pyrazole-4-carboxamide] | < 50 | 500 to 5000
Nc1nccc(Oc2c(F)cc(NC(=O)c3cnn(-c4ncccc4F)c3C(F)(F)F)cc2F)c1C1CCOCC1 [Example 20, N-(4-((2-amino-3-(tetrahydro-2H-pyran-4-yl)pyridin-4-yl)oxy)-3,5-difluorophenyl)-1-(3-fluoropyridin-2-yl)-5-(trifluoromethyl)-1H-pyrazole-4-carboxamide] | < 50 | 50 to 500
Nc1nccc(Oc2c(F)cc(NC(=O)c3cnn(-c4ncccc4Cl)c3C(F)(F)F)cc2F)c1C1CCOCC1 [Example 21, N-(4-((2-amino-3-(tetrahydro-2H-pyran-4-yl)pyridin-4-yl)oxy)-3,5-difluorophenyl)-1-(3-chloropyridin-2-yl)-5-(trifluoromethyl)-1H-pyrazole-4-carboxamide] | < 50 | 50 to 500
Nc1nccc(Oc2c(F)cc(NC(=O)c3cnn(-c4ncccn4)c3C(F)(F)F)cc2F)c1C1CCOCC1 [Example 22, N-(4-((2-amino-3-(tetrahydro-2H-pyran-4-yl)pyridin-4-yl)oxy)-3,5-difluorophenyl)-1-(pyrimidin-2-yl)-5-(trifluoromethyl)-1H-pyrazole-4-carboxamide] | < 50 | 500 to 5000
Nc1nccc(Oc2c(F)cc(NC(=O)c3cnn(-c4cccnn4)c3C(F)(F)F)cc2F)c1C1CCOCC1 [Example 23, N-(4-((2-amino-3-(tetrahydro-2H-pyran-4-yl)pyridin-4-yl)oxy)-3,5-difluorophenyl)-1-(pyridazin-3-yl)-5-(trifluoromethyl)-1H-pyrazole-4-carboxamide] | < 50 | 500 to 5000
Nc1nccc(Oc2c(F)cc(NC(=O)c3cnn(-c4ccccn4)c3C(F)(F)F)cc2F)c1C1CCOCC1 [Example 24, N-(4-((2-amino-3-(tetrahydro-2H-pyran-4-yl)pyridin-4-yl)oxy)-3,5-difluorophenyl)-1-(pyridin-2-yl)-5-(trifluoromethyl)-1H-pyrazole-4-carboxamide] | < 50 | 500 to 5000
